Results: publication PMC9970268 (Cancer Research Communications, 2022)

Key:
GFP-HER2-BM cells = assay: Cell viability (MTT) assay; type: cell-based, human; conditions: for GI50: 0 to 1,000 nmol/L
Method: (§1) Using CellTiter 96 Non-Radioactive Cell Proliferation Assay (Promega, Corp.) according to manufactures’ instructions, formazan was used as an indicator of viable cells at an absorbance 570 nm in a Tecan Microplate Reader M100 (Tecan). Data were calculated as fold change from vehicle and transformed to logarithm base 10. 0 concentration was replaced with 1 nmol/L to fit using the 4-parameter logic nonlinear regression model in GraphPad Prism software. (n = 3 biologic replicates: with three technical replicates each).
(§2) All half maximal growth inhibitory concentration (GI50) values were determined by using the 4-parameter logistic curve model in GraphPad Prism 9 software. Statistical analyses were done also using GraphPad Prism 9 software, and differences were considered statistically significant at P ≤ 0.05 using ordinary one-way ANOVA or unpaired Student t test with Dunnet multiple comparison tests.

MCF10A cells = assay: Cell viability (MTT) assay; type: cell-based, human; conditions: for inhibition of cell viability: 250 nmol/L, 120 hr; for GI50: Homo sapiens, MCF-10A, 120 hours, 0 to 1,000 nmol/L
Method: as §1, §2

MDA-MB-231 cells [1] = assay: Cell viability (MTT) assay; type: cell-based, human; conditions: for inhibition of cell viability: 250 nmol/L, 120 hr; for GI50: 120 hours, 0 to 1,000 nmol/L
Method: as §1, §2

HMEC cells = assay: Cell viability (MTT) assay; type: cell-based, human; conditions: 120 hours, 0 to 1,000 nmol/L
Method: as §1

MDA-MB-231 cells [2] = assay: Wound healing assay; type: cell-based, human; conditions: 250 nmol/L; 12 and 24 hours
Method: MDA-MB-231 cells were plated on 12-well plates at equal cell density until confluent. Then the media was changed to 1% FBS, and a single scratch was made in the center of the monolayer culture with a pipet tip. Compounds were added immediately at 250 or 500 nmol/L and images were digitally acquired from a Keyence microscope (10×) at 0, 12, and 24 hours. The scratch area was quantified in ImageJ using the Macro Wound Healing Tool (http://dev.mri.cnrs.fr/projects/imagej-macros/wiki/Wound_Healing_Tool; n = 3 biologic replicates: with three technical replicates each).

A549 lung cancer cells = assay: EGF-induced ruffle formation; type: cell-based, human; conditions: 24 hours, then EGF 200 ng/mL; for loss in ruffles: 500 nmol/L; for decrease in ruffles: 1,000 nmol/L
Method: Cells were fixed with 4% formaldehyde and F-actin stained with rhodamine phalloidin. Slides were visualized by fluorescence microscopy and five random fields were scored for the number of ruffles. Ruffle area was measured by thresholding for single intensity using ImageJ/Fiji software, as in ref. [29].

[3] = tested on: GFP-HER2-BM mammary fatpad tumors; assay: Orthotopic spontaneous metastasis mouse model; type: in vivo; conditions: for weight and liver toxicity (aspartate transaminase and alanine transaminase from plasma): 5× a week at 5 mg/kg for 53 days
Method: All animal studies were conducted under approved protocol A8180118 Institutional Animal Care and Use Committee, in accordance with the NIH Guideline for the Care and Use of Laboratory Animals. Female SCID mice, 3–4 weeks old (Charles River Laboratories, Inc.), were maintained under pathogen-free conditions in High Efficiency Particulate Air (HEPA)-filtered cages.
GFP-HER2-BM (∼7 × 10^5) cells in Matrigel (BD Biosciences) were injected at the fourth right mammary fat pad under isoflurane inhalation (1%–3% in oxygen using an inhalation chamber at 2 L/minute) to produce orthotopic primary tumors. After tumor establishment (1-week after inoculation), animals were randomly divided into treatment groups (n = 5).
[…]. Treatments continued until sacrifice at day 53.
Mammary tumor growth was quantified by integrated density of GFP fluorescence. After tumor establishment, mice were imaged before starting treatment, and once a week thereafter for 53 days, using the iBoxScientia (Analytik-Jena GmbH). Tumor fluorescence intensities were analyzed using ImageJ software (NIH, Bethesda, MD). Relative tumor growth was calculated as the integrated density of fluorescence of each tumor on each day of imaging relative to the integrated density of fluorescence of the same tumor on day 1 of treatment. After sacrifice at day 60, lungs, kidneys, livers, and spleens were excised and immediately stored in liquid N2. To quntify metastasis, stored organs were thawed and analyzed, as whole organs on both sides, using an Olympus MV10 fluorescence macro zoom system microscope and images acquired with an Olympus DP71 digital camera. The fluorescent lesions (green component of RGB images) were quantified for integrated density of fluorescent pixels using Image J software.

Cdc42 = Cdc42 (Homo sapiens, UniProt P60953); assay: Nucleotide association assay, catalyzed by Dbs; type: biochemical; parameters: purchased Cytoskeleton, Inc; conditions: 2 or 10 μmol/L, N-MAR-GTP
Method: The nucleotide loading on purified Rho GTPases was monitored using a fluorophore-based Rho GEF Exchange Assay Kit as per manufacturer's instructions (Cytoskeleton, Inc.). Drugs were diluted in exchange buffer and incubated with Rac1, Cdc42, or RhoA. The uptake of fluorescent nucleotide analog N-methylanthraniloyl-GTP (N-MAR-GTP) was measured as an increase in fluorescence due to binding to the nucleotide binding pocket of a GTPase. The fluorimeter was set at 20°C on kinetic mode and N-MAR GTP was detected at […]. After the initial five readings (T0), GEFs (Dbs or Vav2) or Ethylenediaminetetraacetic acid (EDTA) was added to stimulate exchange and readings were obtained every 30 seconds for at least 60 cycles.

[4] = 5 mg/kg BW, intraperitoneal, 53 days

Cdc42, sequence (P60953 whole entry): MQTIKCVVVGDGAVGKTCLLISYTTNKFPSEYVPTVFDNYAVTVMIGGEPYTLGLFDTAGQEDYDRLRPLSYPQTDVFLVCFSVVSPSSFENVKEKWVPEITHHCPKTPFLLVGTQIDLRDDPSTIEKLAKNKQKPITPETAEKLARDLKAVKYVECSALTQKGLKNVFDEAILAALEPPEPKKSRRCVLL

Row | SMILES | inhibition of cell viability (GFP-HER2-BM cells; 250 nmol/L, 120 hr) | inhibition of cell viability (GFP-HER2-BM cells; 500 nmol/L, 72 hours) | GI50 (GFP-HER2-BM cells; 120 hours) | GI50 (GFP-HER2-BM cells; Homo sapiens, 120 h) | inhibition of cell viability (MCF10A cells) | GI50 (MCF10A cells) | inhibition of cell viability (MDA-MB-231 cells [1]) | GI50 (MDA-MB-231 cells [1]) | GI50 (MDA-MB-231 cells [1]; Homo sapiens, MDA-MB-231, 120 h) | effect on viability of HMECs (HMEC cells) | wound closure (MDA-MB-231 cells [2]) | loss in ruffles (A549 lung cancer cells) | decrease in ruffles (A549 lung cancer cells) | inhibition in tumor growth compared with vehicle [3, 4] | inhibition of lung, liver, and kidney metastases compared with vehicle [3, 4] | weight and liver toxicity (aspartate transaminase and alanine transaminase from plasma) [3] | inhibition of GTP loading on Cdc42 catalyzed by Dbs (Cdc42) | GI50 (GFP-HER2-BM cells; Homo sapiens, 120 hours) | GI50 (MDA-MB-231 cells [1]; Homo sapiens, MDA-MB-231)
1 | CCn1c2ccccc2c2cc(-n3nncc3-c3ccccc3)ccc21 [MBQ-167] | approximately 85% | approximately 75% | ~160 nM | 163 nM | 30% | 296 nM | 50% | ~160 nM | 162 nM | did not affect the viability of HMECs | wound area was maintained at 12 and 24 hours | 54% | 63% | approximately 90% | approximately 90% | did not significantly change weight or liver toxicity | did not affect | – | –
2 | CCn1c2ccccc2c2cc(-n3nncc3-c3cccc(OC)c3)ccc21 [MBQ-168] | approximately 85% | approximately 75% | – | – | 30% | 304 nM | 50% | – | – | did not affect the viability of HMECs | wound area was maintained at 12 and 24 hours | 67% | 79% | approximately 90% | – | did not significantly change weight or liver toxicity | 10%–20% | 171 nM | 199 nM
